What all share (assay type): cell-based
The target in one assay is T1, human PPARα (Homo sapiens, UniProt Q07869).
T1 construct: expressed in transfected cells; host or cells: Hepa1c1c7 cells (transient transfection, Superfect)
T1 sequence (Q07869 1-468): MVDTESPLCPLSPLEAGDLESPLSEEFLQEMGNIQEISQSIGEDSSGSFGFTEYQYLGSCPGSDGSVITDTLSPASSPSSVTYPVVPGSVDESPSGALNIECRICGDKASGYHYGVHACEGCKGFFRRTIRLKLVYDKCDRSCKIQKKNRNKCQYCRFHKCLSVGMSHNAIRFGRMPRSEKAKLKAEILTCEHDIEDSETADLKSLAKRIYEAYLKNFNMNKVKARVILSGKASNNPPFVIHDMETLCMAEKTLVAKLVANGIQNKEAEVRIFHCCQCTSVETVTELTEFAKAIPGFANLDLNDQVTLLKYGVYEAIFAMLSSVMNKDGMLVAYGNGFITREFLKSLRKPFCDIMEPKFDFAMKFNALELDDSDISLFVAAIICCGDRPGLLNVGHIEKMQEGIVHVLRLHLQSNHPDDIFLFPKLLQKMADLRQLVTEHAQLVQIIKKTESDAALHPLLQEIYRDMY
Briefly: Cell transactivation assay in transiently transfected Hepa1c1c7 cells, PPRE-Lac Z reporter. The settings on record: concentration of 10 μM. The method, then:
(§1) (B) Cell Transactivation Assays
(§2) Assays were performed by transient transfection of Hepa1c1c7 cells in which compounds of the invention were tested for their ability to activate human PPARα, δ and γ isoforms. Cells were co-transfected with either PPARa, d and g expression vectors (containing the entire ORF sequence) and a reporter construct carrying a PPRE linked Lac Z construct. Cells were transfected using Superfect and cultured in T75 flasks overnight, then plated into 96 well plates and left for 5 hours before the addition of test compound. After a further 24 hours PPAR activation was quantitated indirectly as β-Galactosidase activity by hydrolysis of chlorophenol red-β-D-galactopyranoside (CPRG), measured spectrophotometrically at 580 nm. Compounds of the invention were active in this assay.
(§3) According to their activity in transactivation assays and by comparison to the selective PPARγ agonist, BRL 49653; compounds of the invention were categorised as either having pharmacological properties consistent with: selective PPARγ agonists, partial agonists or non-selective PPAR α/γ agonists.

The next assay concerns the target T2, human PPARγ (Homo sapiens, UniProt P37231).
T2 construct: expressed in transfected cells; host or cells: Hepa1c1c7 cells (transient transfection, Superfect)
T2 sequence (P37231 1-505): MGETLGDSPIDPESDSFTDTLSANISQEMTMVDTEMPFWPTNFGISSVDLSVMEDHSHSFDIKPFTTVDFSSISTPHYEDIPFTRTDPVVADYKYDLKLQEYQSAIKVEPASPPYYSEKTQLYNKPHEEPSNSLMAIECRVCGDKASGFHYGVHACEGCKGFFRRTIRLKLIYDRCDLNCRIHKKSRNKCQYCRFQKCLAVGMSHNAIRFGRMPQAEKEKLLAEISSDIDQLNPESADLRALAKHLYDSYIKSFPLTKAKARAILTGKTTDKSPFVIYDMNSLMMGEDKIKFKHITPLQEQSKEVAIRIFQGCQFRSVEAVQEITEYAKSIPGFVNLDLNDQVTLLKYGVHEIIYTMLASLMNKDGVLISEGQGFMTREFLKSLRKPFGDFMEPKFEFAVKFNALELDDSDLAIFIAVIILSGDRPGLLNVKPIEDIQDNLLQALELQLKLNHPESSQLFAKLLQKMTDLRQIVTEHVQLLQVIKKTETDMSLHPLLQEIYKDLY
Described as above. As to conditions: concentration of 10 μM. The method, then:
as §1, §2, §3

Another assay deals with 3T3L1 preadipocytes. As to the kind of experiment: Adipocyte differentiation assay (glycerophosphate dehydrogenase activity). The settings on record: concentration of 10 μM, 3T3L1 cells, day 7; positive control BRL 49653. The method, then:
Adipocyte Differentiation Assay
3T3L1 preadipocytes were grown in DMEM containing 10% NBCS and 1 day post-confluence cells were cultured in differentiation medium (DMEM containing 5% FCS, 1 μg/ml insulin, 0.25 μM dexamethasone and 0.5 mM IBMX) in the presence or absence of compounds. BRL 49653 was used as the positive control and the medium replenished after 3 days. On day 7, cells were lysed and glycerophosphate dehydrogenase activity measured spectrophotometrically at 340 nm.

In the case of `COc1cc(-c2nnn(Cc3ccccc3C(=O)O)n2)ccc1CN(C)C(=O)COc1ccc(Cl)cc1` [Compound 46], the α transactivation at human PPARα stood at 25%. Moreover, the γ transactivation on human PPARγ was found to be 64%. In addition, the “activity as compared to the control (glycerophosphate dehydrogenase activity)” value in the assay on 3T3L1 preadipocytes was determined as 79%.

Values taken from patent US6787556B1, “Benzoic acid derivatives for the treatment of diabetes mellitus” (AstraZeneca AB, priority 1999, dated 2004).
